Test results from US7598237B2 (Wyeth, priority 2004, dated 2009).

System: not given
Test: not given
Settings: not given

Row | SMILES | melting point [°C]
1 | CC1(C)OCC(=O)Nc2ccc(-c3cc(F)cc(C#N)c3)cc21 [Compound 3, 3-(5,5-dimethyl-2-oxo-1,2,3,5-tetrahydro-4,1-benzoxazepin-7-yl)-5-fluorobenzonitrile] | 238 to 239
2 | Cn1c(C#N)ccc1-c1ccc2c(c1)C(C)(c1cccs1)OCC(=O)N2 (centres unmarked) [Compound 6, 1-Methyl-5-[5-methyl-2-oxo-5-(2-thienyl)-1,2,3,5-tetrahydro-4,1-benzoxazepin-7-yl]-1H-pyrrole-2-carbonitrile] | 197 to 198
3 | CCC1(c2cccs2)OCC(=O)Nc2ccc(-c3sc(C#N)cc3C)cc21 (centres unmarked) [Example 140, 5-(5-Ethyl-2-oxo-5-thien-2-yl-1,2,3,5-tetrahydro-4,1-benzoxazepin-7-yl)-4-methylthiophene-2-carbonitrile] | 182 to 184

The next lines start with the values.

Row | melting point [°C] | SMILES
4 | 197 to 199 | CCC1(c2cccs2)OCC(=O)Nc2ccc(-c3ccc(F)c(C#N)c3)cc21 (centres unmarked) [Example 139, 5-(5-Ethyl-2-oxo-5-thien-2-yl-1,2,3,5-tetrahydro-4,1-benzoxazepin-7-yl)-2-fluorobenzonitrile]
5 | 99 to 100 | CCC1(c2cccs2)OCC(=O)Nc2ccc(-c3coc(C#N)c3)cc21 (centres unmarked) [Example 141, 4-(5-Ethyl-2-oxo-5-thien-2-yl-1,2,3,5-tetrahydro-4,1-benzoxazepin-7-yl)-2-furonitrile]
6 | 202 to 204 | CCC1(c2cccs2)OCC(=O)Nc2ccc(-c3csc(C#N)c3)cc21 (centres unmarked) [Example 143, 4-(5-Ethyl-2-oxo-5-thien-2-yl-1,2,3,5-tetrahydro-4,1-benzoxazepin-7-yl)thiophene-2-carbonitrile]

Molecular target: T1, progesterone receptor (PR) (Homo sapiens, UniProt P06401)
T1 construct: effect on alkaline phosphatase activity in T47D cells; endogenous in cells; host or cells: T47D cells
T1 sequence (P06401 1-933): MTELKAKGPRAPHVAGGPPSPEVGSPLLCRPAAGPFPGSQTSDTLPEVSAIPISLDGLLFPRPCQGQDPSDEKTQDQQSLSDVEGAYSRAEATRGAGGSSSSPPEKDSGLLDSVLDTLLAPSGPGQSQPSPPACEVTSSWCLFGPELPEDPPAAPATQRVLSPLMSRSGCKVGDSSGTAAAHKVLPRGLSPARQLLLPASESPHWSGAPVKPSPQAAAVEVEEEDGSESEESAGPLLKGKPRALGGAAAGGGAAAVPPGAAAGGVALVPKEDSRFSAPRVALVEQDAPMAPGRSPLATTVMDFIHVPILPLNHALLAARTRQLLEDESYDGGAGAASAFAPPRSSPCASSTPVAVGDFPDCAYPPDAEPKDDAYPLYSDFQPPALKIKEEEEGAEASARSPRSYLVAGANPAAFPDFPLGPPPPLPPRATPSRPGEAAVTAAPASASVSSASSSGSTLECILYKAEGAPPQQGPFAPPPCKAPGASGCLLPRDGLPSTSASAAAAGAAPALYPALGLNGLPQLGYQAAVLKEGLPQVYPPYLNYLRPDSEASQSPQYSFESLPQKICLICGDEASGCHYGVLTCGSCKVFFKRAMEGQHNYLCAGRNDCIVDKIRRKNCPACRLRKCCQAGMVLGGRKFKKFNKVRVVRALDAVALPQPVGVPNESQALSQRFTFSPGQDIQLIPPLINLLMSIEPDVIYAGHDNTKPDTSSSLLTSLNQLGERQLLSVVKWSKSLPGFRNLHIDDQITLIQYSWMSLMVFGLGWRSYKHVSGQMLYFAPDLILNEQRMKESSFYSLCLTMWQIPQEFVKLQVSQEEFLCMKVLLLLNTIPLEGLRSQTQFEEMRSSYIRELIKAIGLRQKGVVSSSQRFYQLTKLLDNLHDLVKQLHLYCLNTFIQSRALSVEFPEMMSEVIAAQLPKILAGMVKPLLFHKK
Test: T47D cell alkaline phosphatase assay
Assay type: cell-based
Settings: T47D cells; antagonist mode, in the presence of 1 nM progesterone; first TABLE 2; read-out: Alk. Phos. IC50
Experimental: (4) T47D Cell Alkaline Phosphatase Assay
To identify progestins or antiprogestins by determining a compound's effect on alkaline phosphatase activity in T47D cells.
DMEM:F12 (1:1) (GIBCO, BRL) supplemented with 5% (v/v) charcoal stripped fetal bovine serum (not heat-inactivated), 100 U/ml penicillin, […], and 2 mM GlutaMax (GIBCO, BRL).
I. 0.1 M Tris-HCl, pH 9.8, containing 0.2% Triton X-100
II. 0.1 M Tris-HCl, pH 9.8 containing 4 mM p-nitrophenyl phosphate (Sigma).
Frozen T47D cells were thawed in a 37° C. water bath and diluted to 280,000 cells/ml in culture medium. To each well in a 96-well plate (Falcon, Becton Dickinson Labware), 180 μl of diluted cell suspension was added. Twenty μl of reference or test compounds diluted in the culture medium was then added to each well. […] The cells were incubated at 37° C. in a 5% CO2/humidified atmosphere for 24 hr.
Note: For high throughput screening, one concentration of each compound was tested at 0.3 mg/ml. Based on an average molecular weight of 300 g/mol for the compounds in the library, the concentration was approximately 1 mM. […] Alkaline Phosphatase Enzyme Assay: […]
For reference and test compounds, a dose response curve was generated for dose (X-axis) vs. the rate of enzyme reaction (slope) (Y-axis). […] EC50 or IC50 values were calculated from the retransformed values. […]

Row | IC50 [nM] | SMILES
7 | 11.3 | Cn1c(C#N)ccc1-c1ccc2c(c1)C(c1cccs1)(c1cccs1)OCC(=O)N2 [Compound 14, 1-Methyl-5-(2-oxo-5,5-dithien-2-yl-1,2,3,5-tetrahydro-4,1-benzoxazepin-7-yl)-1H-pyrrole-2-carbonitrile]
8 | 14.6 | CCC1(c2cccs2)OCC(=O)Nc2ccc(-c3ccc(C#N)n3C)cc21 (centres unmarked) [Compound 19, 5-(5-Ethyl-2-oxo-5-thien-2-yl-1,2,3,5-tetrahydro-4,1-benzoxazepin-7-yl)-1-methyl-1H-pyrrole-2-carbonitrile]
